Results: ChEMBL document CHEMBL4190266, “Deconstruction - reconstruction approach to analyze the essential structural elements of tetrahydro-3-benzazepine-based antagonists of GluN2B subunit containing NMDA receptors” (Eur J Med Chem, 2017)

Assays:
[1] = species: Homo sapiens; test: Antagonist activity at glutamate/glycine-stimulated recombinant human GluN1A/GluN2B receptor expressed in mouse L(tk-) cells assessed as protection against receptor overstimulation-induced excitotoxicity at 10 to 100 uM preincubated for 30 mins followed by glutamate/glycine stimulation measured after 6 hrs by LDH release assay relative to control; assay type: cell-based
[2] = target: T1, Sigma intracellular receptor 2 (Rattus norvegicus, UniProt Q5U3Y7); test: Displacement of [3H]DTG from sigma2 receptor in rat liver membranes after 120 mins by microbeta scintillation counting method; assay type: cell membranes, Membrane
T1 sequence (Q5U3Y7 whole entry): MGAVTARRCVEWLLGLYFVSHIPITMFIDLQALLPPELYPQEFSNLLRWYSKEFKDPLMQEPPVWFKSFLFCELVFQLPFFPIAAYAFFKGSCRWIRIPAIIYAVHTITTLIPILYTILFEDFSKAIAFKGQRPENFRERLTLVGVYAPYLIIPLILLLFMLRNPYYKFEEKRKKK

[3] = Selectivity ratio of Ki for sigma1 receptor in guinea pig brain cortex membranes to Ki for recombinant human GluN1A/GluN2B receptor expressed in mouse L(tk-) cell membranes; assay type: cell-based
[4] = Antagonist activity at GluN1A/GluN2A receptor (unknown origin) expressed in Xenopus laevis oocytes assessed as inhibition of glutamate/glycine-induced channel current at 1 uM at -70 mV holding potential by two electrode voltage clamp method relative to control; assay type: cell-based; conditions: Homo sapiens
[5] = Selectivity ratio of Ki for sigma2 receptor in rat liver membranes to Ki for recombinant human GluN1A/GluN2B receptor expressed in mouse L(tk-) cell membranes; assay type: cell-based
[6] = Displacement of [3H]ifenprodil from recombinant human GluN1A/GluN2B receptor expressed in mouse L(tk-) cell membranes after 120 mins by microbeta scintillation counting method
[7] = target: Sigma non-opioid intracellular receptor 1 (Cavia porcellus, UniProt Q60492)
Description: Displacement of [3H]-(+)-pentazocine from sigma1 receptor in guinea pig brain cortex membranes after 120 mins by microbeta scintillation counting method

[8] = n-Octanol-buffer distribution coefficient, log D of the compound at pH 7.4 by mass spectrometry based shake flask method; assay type: physicochemical
[9] = Selectivity ratio of Ki for PCP binding site of NMDA receptor in pig brain cortex membranes to Ki for recombinant human GluN1A/GluN2B receptor expressed in mouse L(tk-) cell membranes

Chain of Sigma non-opioid intracellular receptor 1 (Q60492 whole entry): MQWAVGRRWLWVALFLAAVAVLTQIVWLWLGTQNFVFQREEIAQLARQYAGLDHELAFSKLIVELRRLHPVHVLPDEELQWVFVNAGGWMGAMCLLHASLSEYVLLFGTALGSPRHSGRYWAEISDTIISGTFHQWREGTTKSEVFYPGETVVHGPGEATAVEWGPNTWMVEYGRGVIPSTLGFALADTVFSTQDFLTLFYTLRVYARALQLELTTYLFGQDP

Work on `OC1CN(C2CCN(Cc3ccccc3)CC2)CCc2ccccc21` (stereo not drawn) yielded an inhibition [1] of under 6%, a Ki [2] of 34 nM and a Ratio Ki [3] of 0.6. It also gave an inhibition [4] of 13%, a Ratio Ki [5] of 6 and a Ki [6] of 6 nM. It also gave a Ki [7] of 3.5 nM.
Work on `COc1ccc(C(=O)CCCN2CCc3ccccc3C(O)C2)cc1` (stereo not drawn) yielded a Ki [2] of 1100 nM, a Ki [6] of over 1000 nM and a Ki [7] of over 10000 nM.
`O=[N+]([O-])c1ccc2c(c1)C(O)CN(C1CCC(c3ccccc3)CC1)CC2` (mixture of isomers) gave an inhibition [1] of under 6%, a Ki [2] of 24 nM and a Ratio Ki [3] of 23. The inhibition [4] was 4.8%, the Ratio Ki [5] was 2 and the Ki [6] was 16 nM. It also gave a Ki [7] of 360 nM.
Molecule `OC1CN(CCCCCc2ccccc2)CCc2ccccc21` (stereo not drawn) has a Ki [2] of 119 nM, a Ratio Ki [3] of 7 and a Ratio Ki [5] of 2. The Ki [6] was 67 nM and the Ki [7] was 460 nM.
`Nc1ccc2c(c1)C(O)CN(CCCCc1ccccc1)CC2` (stereo not drawn) gave a Ki [2] of 970 nM, a Ratio Ki [3] of over 10 and a Ratio Ki [5] of 1. For the same molecule, the logD [8] was 1.58, the Ki [6] was 1000 nM and the Ki [7] was over 10000 nM.
`O=[N+]([O-])c1ccc2c(c1)C(O)CN(CCCCCc1ccccc1)CC2` (stereo not drawn) gave a Ki [2] of 116 nM, a Ratio Ki [3] of 0.4 and a Ratio Ki [5] of 0.5. The Ki [6] was 240 nM and the Ki [7] was 100 nM.
`c1ccc(CCCCCN2CCc3ccccc3CC2)cc1` showed a Ki [2] of 170 nM, a Ratio Ki [3] of 0.4 and a Ratio Ki [5] of 1. The Ki [6] was 110 nM and the Ki [7] was 48 nM.
`O=[N+]([O-])c1ccc2c(c1)C(O)CN(CCCCc1ccccc1)CC2` (stereo not drawn) showed a Ki [2] of 220 nM, a Ratio Ki [3] of 2 and a Ratio Ki [5] of 0.7. It also gave a logD [8] of 3.82, a Ki [6] of 300 nM and a Ki [7] of 621 nM.
Molecule `Oc1ccc2c(c1)CCN(CCCCc1ccccc1)CC2O` (stereo not drawn) has a logD [8] of 1.67.
With `OC1CN(C2CCC(c3ccccc3)CC2)CCc2ccccc21` (mixture of isomers) the inhibition [1] was under 6%, the Ki [2] was 55 nM and the Ratio Ki [9] was over 4500. The Ratio Ki [3] was 37, the inhibition [4] was 0.8% and the Ratio Ki [5] was 25. The Ki [6] was 2.2 nM and the Ki [7] was 82 nM.
In the case of `O=[N+]([O-])c1ccc2c(c1)C(O)CN(Cc1ccccc1)CC2` (stereo not drawn), the Ki [2] is reported as 4600 nM, the Ratio Ki [3] is reported as under 0.3 and the Ki [6] is reported as over 1000 nM. For the same molecule, the Ki [7] was 320 nM.
With `Nc1ccc2c(c1)C(O)CN(CCCCCc1ccccc1)CC2` (stereo not drawn) the Ki [2] was 110 nM, the Ratio Ki [3] was 2 and the Ratio Ki [5] was 0.9. The Ki [6] was 130 nM and the Ki [7] was 260 nM.
With `OC(CN1CCC(Cc2ccc(F)cc2)CC1)c1ccc(Cl)cc1` (stereo not drawn) [ELIPRODIL] the Ki [6] was 13 nM.
For `OC1CN(CCCCOc2ccccc2)CCc2ccccc21` (stereo not drawn), the Ki [2] was 280 nM, the Ratio Ki [3] was over 41 and the Ratio Ki [5] was 1. It also gave a Ki [6] of 250 nM and a Ki [7] of over 10000 nM.
Molecule `OC1CN(CCc2ccccc2)CCc2ccccc21` (stereo not drawn) has a Ki [2] of 3200 nM, a Ratio Ki [3] of 1 and a Ratio Ki [5] of 2. It also gave a Ki [7] of 1600 nM.
With `O=C(c1ccccc1)N1CCC(N2CCc3ccccc3C(O)C2)CC1` (stereo not drawn) the Ki [2] was 1400 nM, the Ratio Ki [3] was 0.9 and the Ratio Ki [5] was 2. For the same molecule, the Ki [6] was 890 nM and the Ki [7] was 800 nM.
For `CC(C(O)c1ccc(O)cc1)N1CCC(Cc2ccccc2)CC1` (stereo not drawn) [IFENPRODIL], the inhibition [4] was 87% and the Ki [6] was 10 nM.
In the case of `O=[N+]([O-])c1ccc2c(c1)C(O)CN(CCc1ccccc1)CC2` (stereo not drawn), the Ki [2] is reported as over 10000 nM, the Ratio Ki [3] is reported as 1 and the Ratio Ki [5] is reported as 6. The Ki [6] was 1600 nM and the Ki [7] was 1800 nM.
`OC1CN(Cc2ccc(-c3ccccc3)cc2)CCc2ccccc21` (stereo not drawn) gave a Ki [2] of 760 nM, a Ratio Ki [3] of 1 and a Ratio Ki [5] of 4. It also gave a Ki [6] of 210 nM and a Ki [7] of 230 nM.
Work on `O=C(CCCN1CCc2ccccc2C(O)C1)c1ccc(F)cc1` (stereo not drawn) yielded a Ki [2] of 61 nM, a Ratio Ki [3] of 4 and a Ratio Ki [5] of 0.2. For the same molecule, the Ki [7] was 1100 nM.
Molecule `c1ccc(CCCCN2CCc3ccccc3CC2)cc1` has a Ki [2] of 35 nM, a Ratio Ki [3] of 0.04 and a Ratio Ki [5] of 0.15. The logD [8] was 3.13, the Ki [6] was 230 nM and the Ki [7] was 10 nM.
For `OC1CN(CCCCc2ccccc2)CCc2ccccc21` (stereo not drawn), the logD [8] was 2.7.
Molecule `O=[N+]([O-])c1ccc2c(c1)C(O)CN(CCCCOc1ccccc1)CC2` (stereo not drawn) has a Ki [2] of 1000 nM, a Ratio Ki [3] of 2 and a Ratio Ki [5] of 1. It also gave a Ki [6] of 770 nM and a Ki [7] of 1500 nM.
With `c1ccc(-c2ccc(CN3CCc4ccccc4CC3)cc2)cc1` the Ki [2] was 120 nM, the Ratio Ki [3] was 0.2 and the Ratio Ki [5] was 2. The Ki [6] was 75 nM and the Ki [7] was 16 nM.
Molecule `O=[N+]([O-])c1ccc2c(c1)C(O)CN(CCCc1ccccc1)CC2` (stereo not drawn) has a Ki [2] of 300 nM, a Ratio Ki [3] of 12 and a Ratio Ki [5] of 3. It also gave a Ki [6] of 110 nM and a Ki [7] of 1300 nM.
In the case of `O=[N+]([O-])c1ccc2c(c1)C(O)CN(Cc1ccc(-c3ccccc3)cc1F)CC2` (stereo not drawn), the Ki [2] is reported as 1400 nM, the Ki [6] is reported as over 1000 nM and the Ki [7] is reported as 2800 nM.
